Experimental data: paper PMC3832545 (PLoS ONE, 2013)
Marks after values point to notes of the source that are not given here.

Key:
[1] = Blood glucose (pharmacodynamics) after sc injection in DIO-mice; assay type: in vivo, mouse; details: 600 nmol/kg sc, n = 8
Excerpt: Blood was collected by puncture of the saphenous vein and blood glucose measured using a OneTouch Ultra Glucometer (LifeScan, Inc., Milpitas, CA, USA).

MCF-7 cells = test: MTT cell proliferation assay, MCF-7 cells; assay type: cell-based, human; details: 24 h, 0.1% (v/v) serum, 0.001 to 1000 nM, three independent experiments with four replicates
Description: (§1) Effect of test compounds on proliferation was assessed with 3-(4,5-dimethylthiazol-2-yl)-2,5-diphenyl tetrazolium bromide (MTT) assays, essentially as described previously. In brief, MC38 cells were plated in 96-well plates (5,000 cells per well) in growth medium. […] Data for relative cell numbers from the three repeated experiments, each with four replicate samples per condition, were then used to fit dose-response curves using GraphPad Prism version 6.0 (GraphPad Software Inc., La Jolla, CA, USA). Cell proliferation experiments were done with MCF-7 cells as described for MC38 cells, except that 20,000 cells were plated per well. See Materials S1 and Figure S1 for detailed supplementary information regarding cell proliferation experiments.
(§2) In initial tests the association between number of cells and absorbance at 570 nm measured in an MTT assay was examined after incubation of MC38 cells with MTT for 3 h, 3 h after plating different number of cells per well, i.e., the total incubation period was 6 h. As expected there was a highly linear relationship between absolute number of cells and the measured absorbance (Figure S1). […] After incubation for 1 day cells were rinsed in PBS (room temperature) and then starvation medium was added. […] Control samples were treated with starvation medium only. After treatment for 21 h, 10 µl stock solution of MTT dissolved in PBS (5.0 mg/ml) was added to each well, and incubation was continued for 3 h so treatment with test compounds in total lasted 24 h. At the end of the treatment period medium with test compounds was removed and formazan crystals were suspended by adding 100 µl 0.04 M HCl dissolved in isopropanol to each well and absorbance was thereafter read at 570 nm using a Emax PC plate reader (Molecular Devices LLC, Sunnyvale, CA, USA). Each treatment was done with four replicate samples and three independent experiments were performed. In each experiment the absorbance was normalized to the mean absorbance in the untreated control samples. […]

MC38 cells = test: MTT cell proliferation assay, MC38 cells; assay type: cell-based, mouse; details: 24 h, 0.25% (v/v) serum, 0.001 to 1000 nM, three independent experiments with four replicates
Description: as §1, §2

MC38 cell allografts = test: Growth of MC38 cell tumor allografts in mice with diet-induced obesity; assay type: in vivo, mouse; details: 600 nmol/kg sc twice daily; for Tumor end volume, mean / Tumor end volume, fold change relative to vehicle: day 14; for AUC tumor growth, mean / AUC tumor growth, fold change relative to vehicle: day 0 to 14
Description: We focused on different endpoints in these animal experiments and monitored tumor growth in all experiments, see Table 1. The animal experiments were performed as described recently. […] Animal care and treatments were conducted in accordance with established guidelines and protocols approved by the Lady Davis Institute (protocol # 5951) and McGill University's Animal Ethics Committee. Mice were housed one mouse per cage with ad libitum access to tap water and high- or low fat diet, respectively, throughout the studies. The temperature in the animal rooms was maintained at 20-25°C with a light/dark cycle of 14/10 hours. Mice were acclimatized for 7-10 days before experimental procedures were initiated. At experimental day 0, 2.0×10^5 (experiment A) or 5.0×10^5 (all other experiments) MC38 cells, suspended in 100 μl phosphate-buffered saline (PBS), were injected subcutaneously (sc) in the right flank of the mice. […] The size of the tumor allografts was measured three times per week and the volume calculated using the following formula: length × width^2 × 0.52. Based on the tumor volume data for each mouse, we calculated the area under the tumor growth curves (tumor growth AUC). At termination of the experiments, mice were anesthetized with isoflurane. Blood was collected by cardiac puncture and immediately after euthanasia by cervical dislocation, samples of the liver, colon, gastrocnemius muscle and the MC38 cell tumor allografts were dissected out and snap-frozen in liquid nitrogen for later preparation of tissue lysate. The effect of treatment on tumor growth in each of the five animal experiments were analysed in a one-way ANOVA followed by pairwise comparison of each treatment with vehicle using multiple t-tests with Dunnetts correction for each of the two tumor growth endpoints; tumor end volume and area under the tumor growth curves (tumor growth AUC). The results of this analysis for each experiment, i.e., mean values for each treatment, 95% confidence intervals and the fold change of each treatment relative to vehicle, are shown in Table 3. To examine treatment-related effects on tumor growth across all five animal experiments, we for each endpoint (tumor end volume and tumor growth AUC) pooled all data in one dataset and analysed them in a mixed linear model with treatment as a fixed explanatory variable and experiment as a random effect. No significant interaction between treatment and experiment was found for the any of the two outcomes (tumor end volume and tumor growth AUC). To further explore the differences between treatments, pairwise comparisons of each type of treatment were done using multiple t-test with Bonferonni correction. No outliers were observed among the 131 observations of tumor end volume, whereas one outlier was identified among the 131 observations of tumor growth AUC.

[2] = all experiments (A–E) pooled, mixed linear model, DIO-mice
[3] = all experiments (A–E) pooled, mixed linear model, one outlier excluded, DIO-mice
[4] = experiment C, n = 6, 5.0×10^5 MC38 cells sc, DIO-mice
[5] = experiment D, n = 8–10, 5.0×10^5 MC38 cells sc, DIO-mice
[6] = experiment A, n = 6, 2.0×10^5 MC38 cells sc, DIO-mice
[7] = experiment A, n = 6, 2.0×10^5 MC38 cells sc, male C57BL/6 DIO-mice
[8] = experiment B, n = 6, 5.0×10^5 MC38 cells sc, DIO-mice
[9] = experiment E, n = 10, 5.0×10^5 MC38 cells sc, DIO-mice

| Substance | Effect on blood glucose [1] | Time until blood glucose returned to basal levels [1] [h] | Ranking according to mitogenic potency (MTT assay) (MCF-7 cells) | Ranking according to mitogenic potency (MTT assay) (MC38 cells) | Tumor end volume, mean (MC38 cell allografts; [2]) [mm^3] | AUC tumor growth, mean (MC38 cell allografts; [3]) [day × mm^3] | AUC tumor growth, mean (MC38 cell allografts; [4]) [day × mm^3] | Tumor end volume, mean (MC38 cell allografts; [4]) [mm^3] | AUC tumor growth, mean (MC38 cell allografts; [5]) [day × mm^3] | Tumor end volume, mean (MC38 cell allografts; [5]) [mm^3] | AUC tumor growth, mean (MC38 cell allografts; [6]) [day × mm^3] | Tumor end volume, mean (MC38 cell allografts; [7]) [mm^3] | AUC tumor growth, mean (MC38 cell allografts; [8]) [day × mm^3] | Tumor end volume, mean (MC38 cell allografts; [8]) [mm^3] | AUC tumor growth, mean (MC38 cell allografts; [9]) [day × mm^3] | Tumor end volume, mean (MC38 cell allografts; [9]) [mm^3] | further results |
| --- | --- | --- | --- | --- | --- | --- | --- | --- | --- | --- | --- | --- | --- | --- | --- | --- | --- |
| IGF-1: recombinant human IGF-1 (Increlex, IPSEN Pharma GmbH) | rapidly lowered blood glucose | 3 to 4 | IGF-1>X10>HI | X10≥IGF-1>HI | 686.3 | 2499.8 | 2596.8 | 724.6 | 2207.1 | 616.0 | – | – | – | – | – | – | – |
| human insulin [HI] | rapidly lowered blood glucose | 3 to 4 | IGF-1>X10>HI | X10≥IGF-1>HI | 409.5 | 1542.1 | 1309.5 | 374.5 | 1483.0 | 397.7 | 1539.6 | 439.3 | 1725.4 | 434.3 | 1421.9 | 365.6 | – |
| insulin analog B10Asp [X10] | rapidly lowered blood glucose | 3 to 4 | IGF-1>X10>HI | X10≥IGF-1>HI | 500.5 | 1851.9 | 2060.9 | 646.8 | 1394.4 | 345.8 | 1880.9 | 500.7 | 2167.5 | 558.4 | 1836.1 | 427.0 | Tumor end volume, fold change relative to vehicle (MC38 cell allografts; [2]): 1.5 ^* fold; AUC tumor growth, fold change relative to vehicle (MC38 cell allografts; [3]): 1.5 ^* fold; AUC tumor growth, fold change relative to vehicle (MC38 cell allografts; [6]): 0.9 fold; Tumor end volume, fold change relative to vehicle (MC38 cell allografts; [6]): 1.0 fold; AUC tumor growth, fold change relative to vehicle (MC38 cell allografts; [8]): 1.8 fold; Tumor end volume, fold change relative to vehicle (MC38 cell allografts; [8]): 1.7 fold; AUC tumor growth, fold change relative to vehicle (MC38 cell allografts; [4]): 1.8 ^* fold; Tumor end volume, fold change relative to vehicle (MC38 cell allografts; [4]): 2.0 ^* fold; AUC tumor growth, fold change relative to vehicle (MC38 cell allografts; [5]): 1.6 fold; Tumor end volume, fold change relative to vehicle (MC38 cell allografts; [5]): 1.9 fold; AUC tumor growth, fold change relative to vehicle (MC38 cell allografts; [9]): 1.4 fold; Tumor end volume, fold change relative to vehicle (MC38 cell allografts; [9]): 1.3 fold |
